US20110039783A1, “PEPTIDE HAVING HYPOTENSIVE ACTIVITY” (DAIICHI SANKYO COMPANY LIMITED, priority 2007, published 2011)
Where no end group is shown, it is not given here.

System: blood pressure of anesthetized Sprague-Dawley IGS male rats
Experiment: Hypotensive activity in anesthetized rats, invasive blood pressure measurement after intravenous administration
Assay type: in vivo, rat
Settings: for Hypotensive activity (dose/rat) 10 nmol / Hypotensive activity (dose/rat) 30 nmol / Hypotensive activity (dose/rat) 100 nmol: anesthetized rats, intravenous; for Hypotensive activity (dose/rat) 10 nmol: 10 nmol/rat; for Hypotensive activity (dose/rat) 30 nmol: 30 nmol/rat; for Hypotensive activity (dose/rat) 100 nmol: 100 nmol/rat; for dose dependence of hypotensive activity: anesthetized rats, 10, 30, 100 nmol/rat
Method: 50 mg/kg pentobarbital sodium was intraperitoneally administered to 8- to 10-week-old Sprague-Dawley IGS male rats (Charles River Laboratories Japan, Inc.) for anesthesia. Thereafter, a tracheal cannula (PE 250), a femoral vein cannula (PE50), and a femoral artery cannula (PESO) were inserted into each rat. The femoral artery cannula was connected with a pressure transducer (PE23XL; manufactured by Nihon Kohden Corporation), and an apparatus formed by incorporating a blood pressure measurement unit (AP-641G; manufactured by Nihon Kohden Corporation) and an instantaneous heart rate measurement unit (AT-601G; manufactured by Nihon Kohden Corporation) into a multi-purpose preamplifier (RP-6004; manufactured by Nihon Kohden Corporation) was used to record the blood pressure and heart rate of each rat. The blood pressure was calibrated using a mercury manometer included in a stand-type electromanometer (MP-25S; manufactured by Nihon Kohden Corporation). The recording paper was adjusted, such that 10 mm or 20 mm on the recording paper corresponded to 100 mmHg.
Each peptide was dissolved in a concentration of 1 mM or 10 mM in a 0.1% acetic acid solution to prepare a peptide solution. Thereafter, depending on dose, it was diluted with a normal saline containing 0.1% bovine serum albumin (Fr.V). In the case of the dose of 10 nmol/rat, a 1 mM peptide solution was 10 times diluted, and 100 μl of the diluted solution was administered. In the case of the dose of 30 nmol/rat, a 1 mM peptide solution was 10 times diluted, and 300 μL, of the diluted solution was administered. In the case of the dose of 100 nmol/rat, a 10 mM peptide solution was 10 times diluted, and 100 μL of the diluted solution was administered. Each peptide was intravenously administered via the femoral vein cannula, and the systolic blood pressure, diastolic blood pressure, and heart rate were then measured.
Various HC021 derivative peptides were synthesized in accordance with Example 1, and such peptide was then administered to each rat at a dose of 10 nmol/rat, 30 nmol/rat, or 100 mol/rat by the method described in Example 2. Thereafter, the hypotensive activity of each derivative peptide was measured. […] The strength of such activity was determined using a median of activity in repeated experiments. In addition, in order to make a comparison among the activities of various derivative peptides, the strength of hypotensive activity was defined as follows.
Strength of Hypotensive Activity
Extremely strong activity (+++): A decrease in systolic blood pressure is 30 mmHg or more, and the time required for recovery is 5 minutes or more.
Strong activity (++): A decrease in systolic blood pressure is 20 mmHg or more and less than 30 mmHg, or the time required for recovery is less than 5 minutes.
Activity observed (+): A decrease in systolic blood pressure is less than 20 mmHg.
Activity not observed (−)
Various HC021 peptide sequence-substituted products were synthesized in accordance with Example 1, and their hypotensive activity was then measured according to the method of Example 3.

Substance	Hypotensive activity (dose/rat) 10 nmol (Table 2)	Hypotensive activity (dose/rat) 30 nmol (Table 2)	Hypotensive activity (dose/rat) 100 nmol (Table 2)	other results
LFFRRLQAYFKGRGLDLGTFPNPF [Compound 27]	+++ (Extremely strong activity (+++): A decrease in systolic blood pressure is 30 mmHg or more, and the time required for recovery is 5 minutes or more.)			
LFFRRLQAYFKGRGLDLGTFPNPF-amide (LFFRRLQAYFKGRGLDLGTFPNPF-NH2) [Compound 28]	+++ (Extremely strong activity (+++): A decrease in systolic blood pressure is 30 mmHg or more, and the time required for recovery is 5 minutes or more.)			
LFFRRLQAYFKGRGLDLGTFPNPFPTNENPR [Compound 29]	+++ (Extremely strong activity (+++): A decrease in systolic blood pressure is 30 mmHg or more, and the time required for recovery is 5 minutes or more.)			
LFFRRLQAYFKGRGLDLGTFPNPFPTNENPR-amide [Compound 30]	+++ (Extremely strong activity (+++): A decrease in systolic blood pressure is 30 mmHg or more, and the time required for recovery is 5 minutes or more.)			Hypotensive activity (dose/rat) 10 nmol (Table 3): +++ (Extremely strong activity (+++): A decrease in systolic blood pressure is 30 mmHg or more, and the time required for recovery is 5 minutes or more.)
LFFRSLQAYFK-amide (LFFRSLQAYFK-NH2) [Compound 43]				Hypotensive activity (dose/rat) 10 nmol (Table 3): −; Hypotensive activity (dose/rat) 30 nmol (Table 3): ++ (Strong activity (++): A decrease in systolic blood pressure is 20 mmHg or more and less than 30 mmHg, or the time required for recovery is less than 5 minutes.)
NGATVRNEDKWKPLNNPRNRDLFFRRLQAYFK-amide [Compound 6]	−	+ (Activity observed (+): A decrease in systolic blood pressure is less than 20 mmHg.)		
NRDLFFRRLQAYAK-amide (NRDLFFRRLQAYAK-NH2) [Compound 42]				Hypotensive activity (dose/rat) 10 nmol (Table 3): −; Hypotensive activity (dose/rat) 30 nmol (Table 3): −; Hypotensive activity (dose/rat) 100 nmol (Table 3): ++ (Strong activity (++): A decrease in systolic blood pressure is 20 mmHg or more and less than 30 mmHg, or the time required for recovery is less than 5 minutes.)
NRDLFFRRLQAYFK (not fully specified (C-terminus)) [Compound 15]	−	−	+ (Activity observed (+): A decrease in systolic blood pressure is less than 20 mmHg.)	
NRDLFFRRLQAYFKG [Compound 11]	−	−	+ (Activity observed (+): A decrease in systolic blood pressure is less than 20 mmHg.)	
NRDLFFRRLQAYFKG-amide (NRDLFFRRLQAYFKG-NH2) [Compound 12]	−	++ (Strong activity (++): A decrease in systolic blood pressure is 20 mmHg or more and less than 30 mmHg, or the time required for recovery is less than 5 minutes.)	+++ (Extremely strong activity (+++): A decrease in systolic blood pressure is 30 mmHg or more, and the time required for recovery is 5 minutes or more.)	dose dependence of hypotensive activity: enhanced their hypotensive activity in a dose-dependent manner
NRDLFFRRLQAYFKGR [Compound 13]		−	++ (Strong activity (++): A decrease in systolic blood pressure is 20 mmHg or more and less than 30 mmHg, or the time required for recovery is less than 5 minutes.)	
NRDLFFRRLQAYFKGR-amide (NRDLFFRRLQAYFKGR-NH2) [Compound 14]	+ (Activity observed (+): A decrease in systolic blood pressure is less than 20 mmHg.)	++ (Strong activity (++): A decrease in systolic blood pressure is 20 mmHg or more and less than 30 mmHg, or the time required for recovery is less than 5 minutes.)		dose dependence of hypotensive activity: enhanced their hypotensive activity in a dose-dependent manner
NRELFFRRLQAYFK-amide (NRELFFRRLQAYFK-NH2) [Compound 41]				Hypotensive activity (dose/rat) 10 nmol (Table 3): −; Hypotensive activity (dose/rat) 30 nmol (Table 3): ++ (Strong activity (++): A decrease in systolic blood pressure is 20 mmHg or more and less than 30 mmHg, or the time required for recovery is less than 5 minutes.)
RDLFFRRLQAYFK-amide (RDLFFRRLQAYFK-NH2) [Compound 16]	−	++ (Strong activity (++): A decrease in systolic blood pressure is 20 mmHg or more and less than 30 mmHg, or the time required for recovery is less than 5 minutes.)	+++ (Extremely strong activity (+++): A decrease in systolic blood pressure is 30 mmHg or more, and the time required for recovery is 5 minutes or more.)	dose dependence of hypotensive activity: enhanced their hypotensive activity in a dose-dependent manner
RLQAYFK-amide (RLQAYFK-NH2) [Compound 23]		−	−	
RRLQAYFK-amide (RRLQAYFK-NH2) [Compound 22]		−	−	
VQQRKESKKPPAKLQPRNRDLFFRRLQAYFK-amide (VQQRKESKKPPAKLQPRNRDLFFRRLQAYFK-NH2) [Compound 40]				Hypotensive activity (dose/rat) 30 nmol (Table 3): ++ (Strong activity (++): A decrease in systolic blood pressure is 20 mmHg or more and less than 30 mmHg, or the time required for recovery is less than 5 minutes.)
acetyl-ATVRNEDKWKPLNNPRNRDLFFRRLQAYFK-amide [Compound 31]		+++ (Extremely strong activity (+++): A decrease in systolic blood pressure is 30 mmHg or more, and the time required for recovery is 5 minutes or more.)		
acetyl-NRDLFFRRLQAYFK-amide (Ac-NRDLFFRRLQAYFK-NH2) [Compound 32]		++ (Strong activity (++): A decrease in systolic blood pressure is 20 mmHg or more and less than 30 mmHg, or the time required for recovery is less than 5 minutes.)		
pyr-EDKWKPLNNPRNRDLFFRRLQAYFK-amide (not fully specified; N-terminal pyroglutamate, C-terminal amide) [Compound 33]	++ (Strong activity (++): A decrease in systolic blood pressure is 20 mmHg or more and less than 30 mmHg, or the time required for recovery is less than 5 minutes.)			
